Patent publication US6548496B2, “Substituted 3-cyano-[1.7], [1.5], and [1.8] naphthyridine inhibitors of tyrosine kinases” (American Cyanamid Company, priority 1999, dated 2003)

Experiments:
MDA435 = assay: Inhibition of cancer cell growth by cell number, MDA435; assay type: cell-based, Human; conditions: 48 hours exposure, Sulforhodamine B
Description: (§1) Human tumor cell lines were plated in 96-well plates (250 μl/well, 1-6×10^4 cells/ml) in RPMI 1640 medium, containing 5% FBS (Fetal Bovine Serum). […] After 48 hours exposure to test compounds, cells were fixed with trichloroacetic acid, and stained with Sulforhodamine B. After washing with trichloroacetic acid, bound dye was solubilized in 10 mM Tris base and optical density was determined using a plate reader. Under conditions of the assay the optical density is proportional to the number of cells in the well. IC50s (concentrations causing 50% inhibition of cell growth) were determined from the growth inhibition plots. The test procedure is described in details by Philip Skehan et. at J. Natl. Canc. Inst., 82, 1107-1112 (1990). […] Information about some of the cell lines used in these test procedures is available from the American […]: Cell Lines and Hybridomas, 1994 Reference Guide, 8th Edition. The Her2Neu cell line is a 3T3 line that has bbeen transfected with Her2 receptor kinase.

A431 = assay: Inhibition of cancer cell growth by cell number, A431; assay type: cell-based, Human; conditions: 48 hours exposure, Sulforhodamine B
Description: as §1

A2780S = assay: Inhibition of cancer cell growth by cell number, A2780S; assay type: cell-based, Human; conditions: 48 hours exposure, Sulforhodamine B
Description: as §1

A2780DDP = assay: Inhibition of cancer cell growth by cell number, A2780DDP; assay type: cell-based, Human; conditions: 48 hours exposure, Sulforhodamine B
Description: as §1

SW620 = assay: Inhibition of cancer cell growth by cell number, SW620; assay type: cell-based, Human; conditions: 48 hours exposure, Sulforhodamine B
Description: as §1

SKBR3 = assay: Inhibition of cancer cell growth by cell number, SKBR3; assay type: cell-based, Human; conditions: 48 hours exposure, Sulforhodamine B
Description: as §1

LOX = assay: Inhibition of cancer cell growth by cell number, LOX; assay type: cell-based, Human; conditions: 48 hours exposure, Sulforhodamine B
Description: as §1

[1] = target: T1, recombinant human MEK 1 (MAPKK) / human ERK2 (MAPK) (Homo sapiens, UniProt P28482+Q02750); assay: Mitogen Activated Protein Kinase (MAPK) coupled Mek-Erk assay; assay type: biochemical; conditions: coupled MEK 1/ERK2 assay, 33P ATP; read-out: IC50, inhibition of Mitogen Activated Protein Kinase (Mek-Erk)
T1 construct: The recombinant enzymes used were prepared as GST fusion proteins of human ERK 2 and human MEK 1
Description: To evaluate inhibitors of the MAP (mitogen activated protein) kinase a two component coupled standard pharmacological test procedure, which measures phosphorylation of a serine/threonine residue in an appropriate sequence in the substrate in the presence and absence of a putative inhibitor, was used. Recombinant human MEK 1 (MAPKK) was first used to activate recombinant human ERK2 (MAPK) and the activated MAPK (ERK) was incubated with substrate (MEP peptide or MYC peptide) in the presence of ATP, Mg^+2 and radiolabeled ^33P ATP. The phosphorylated peptide was captured on a P 81 phosphocellulose filter (paper filter or embedded in microtiter plate) washed and counted by scintillation methods. […]
The reaction was run as follows in 50 mM Tris kinase buffer, pH 7.4 in a reaction volume of 50 ul. […] The filters or MTP were briefly air dried before addition of scintillant and samples were counted in the appropriate scintillation counter set up for reading ^33P isotope. […]
The raw data was captured as cpm Sample replicates were averaged and corrected for background count. Mean cpm data was tabulated by group and % inhibition by a test compound was calculated as (corrected cpm control-corrected. cpm sample/control)×100=% inhibition. […]

T1 sequence (P28482 2-360): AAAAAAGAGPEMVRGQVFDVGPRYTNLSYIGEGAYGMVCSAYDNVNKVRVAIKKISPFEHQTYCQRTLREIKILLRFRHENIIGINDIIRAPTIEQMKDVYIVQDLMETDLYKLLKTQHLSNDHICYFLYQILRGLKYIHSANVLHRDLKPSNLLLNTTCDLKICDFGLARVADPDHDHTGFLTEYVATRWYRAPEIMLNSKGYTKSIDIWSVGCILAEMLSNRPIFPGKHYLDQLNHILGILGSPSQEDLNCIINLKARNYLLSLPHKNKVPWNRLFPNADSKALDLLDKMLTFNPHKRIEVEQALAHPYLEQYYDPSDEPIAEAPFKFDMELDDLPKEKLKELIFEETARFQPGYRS
T1 sequence (Q02750 whole entry, the tested form may be a part): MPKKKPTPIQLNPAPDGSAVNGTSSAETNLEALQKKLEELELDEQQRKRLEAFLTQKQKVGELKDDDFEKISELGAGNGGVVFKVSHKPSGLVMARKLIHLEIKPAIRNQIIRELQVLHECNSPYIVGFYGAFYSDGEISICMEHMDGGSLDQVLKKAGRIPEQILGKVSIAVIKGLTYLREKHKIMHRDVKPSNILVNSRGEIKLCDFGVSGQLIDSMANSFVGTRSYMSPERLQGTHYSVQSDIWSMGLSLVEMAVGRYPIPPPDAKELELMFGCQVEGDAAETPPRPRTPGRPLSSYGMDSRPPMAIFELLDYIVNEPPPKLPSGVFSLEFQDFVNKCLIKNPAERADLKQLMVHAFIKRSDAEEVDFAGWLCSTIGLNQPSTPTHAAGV

Compound	IC50, inhibition of cell growth, MDA435 (MDA435) [µg/mL]	IC50, inhibition of cell growth, A431 (A431) [µg/mL]	IC50, inhibition of cell growth, A2780S (A2780S) [µg/mL]	IC50, inhibition of cell growth, A2780DDP (A2780DDP) [µg/mL]	IC50, inhibition of cell growth, SW620 (SW620) [µg/mL]	IC50, inhibition of cell growth, SKBR3 (SKBR3) [µg/mL]	IC50, inhibition of cell growth, LOX (LOX) [µg/mL]	IC50 [1] [µM]
1-[4-(3-Bromo-phenylamino)-3-cyano-[1,7]naphthyridin-6-yl]-4-diethylamino-pyridinium Fluoride [Example 65]	47	59	31	52	42	41	56	–
N#Cc1cnc2ncc([N+](=O)[O-])cc2c1Nc1cccc(Br)c1 [Example 21, 4-(3-Bromo-phenylamino)-6-nitro-[1,8]naphthyridine-3-carbonitrile]	–	–	–	–	–	–	–	10
